Columns and labels:
cardiac actin (“cACT”) = experiment: Semi-quantitative RT-PCR of cardiac actin (cACT) gene expression; format: cell-based, human; conditions: NUCREM cells treated with 1-2 μM retinoic acid, day five (treatment regimen 3); ±118% SEM, three experiments
Description: (§1) Subsequent to cyclin B treatment, the cultures of in vitro derived adult pluripotent stem cells were cultured in the presence of approximately 1-2 μM retinoic acid (“RA”) (Sigma, St. Louis) for five (5) to 10 days. […] By day five (5) of retinoic acid treatment, approximately 50% of the cells in culture attained a neuron-like morphology (FIG. 1). At day five of RA treatment (treatment regimen 3), RNA was extracted from the cultures for RT-PCR analysis. […]
(§2) RT-PCR was performed using the QIAGEN® OneStep RT-PCR Kit (Qiagen Inc., Valencia, Calif.) according to the manufacturer's instructions. […] To control for the quality of the extracted RNA and to serve as an internal quantification marker, human glyceraldehyde 3-phosphate dehydrogenase (“GAPDH”) oligonucleotide primers were included in the RT-PCR reaction.
(§3) The RT-PCR products were run out on a 2% agarose gel, which was then stained with ethidium bromide. The intensity of the resultant DNA bands were quantified using the PHORETIX™ TotalLab densitometry software package developed by Nonlinear USA (Durham, N.C.). […]

[1] = test system: in vitro derived adult pluripotent stem cells (“NUCREM™ cells”); experiment: Retinoic acid induced differentiation of in vitro derived adult pluripotent stem cells (morphology); format: cell-based, human; conditions: approximately 1-2 μM retinoic acid, day five
Description: Subsequent to cyclin B treatment, the cultures of in vitro derived adult pluripotent stem cells were cultured in the presence of approximately 1-2 μM retinoic acid (“RA”) (Sigma, St. Louis) for five (5) to 10 days. […] By day five (5) of retinoic acid treatment, approximately 50% of the cells in culture attained a neuron-like morphology (FIG. 1). At day five of RA treatment (treatment regimen 3), RNA was extracted from the cultures for RT-PCR analysis.

human telomerase (“TRT”) = experiment: Semi-quantitative RT-PCR of telomerase (TRT) gene expression; format: cell-based; conditions: NUCREM cells subsequently treated with 1-2 μM retinoic acid, day five (treatment regimen 3)
Description: 5-aza-2′-deoxycytidine (Sigma, St. Louis) was added at a concentration of 10-25 μM to cultures of human adult keratinocytes that were approximately 40% to 80% confluent. These cultures were further incubated for approximately four (4) days at 37° C. in an atmosphere of 5-10% CO2. After four days in the presence of 5-aza-2′-deoxycytidine, trichostatin A (Sigma, St. Louis) was added to the cultures at a concentration of 100-250 ng/ml. Cultures were further incubated for approximately one (1) day, as described above. RNA was extracted from some of the aliquots of cultures at this point (treatment regimen 1) for subsequent RT-PCR analysis. Other aliquots of cultures were subsequently treated as follows. […]
as §2, §3

α1-antitrypsin (“αAT”) = experiment: Semi-quantitative RT-PCR of α1-antitrypsin (αAT) gene expression; format: cell-based, human; conditions: NUCREM cells treated with 1-2 μM retinoic acid, day five (treatment regimen 3); ±94% SEM, three experiments
Description: as §1, §2, §3

[2] = test system: neurofilament heavy chain (“NF”); experiment: Semi-quantitative RT-PCR of neurofilament heavy chain (NF) gene expression; format: cell-based, human; conditions: NUCREM cells treated with 1-2 μM retinoic acid, day five (treatment regimen 3); ±45% SEM, three experiments
Description: as §1, §2, §3

## CC1=C(/C=C/C(C)=C/C=C/C(C)=C/C(=O)O)C(C)(C)CCC1 [retinoic acid]
Cardiac actin (“cACT”)
  increase in levels of expression of cACT relative to untreated keratinocytes: 667%
[1]
  cells in culture that attained a neuron-like morphology: approximately 50%
Human telomerase (“TRT”)
  decrease in levels of expression of TRT: approximately 50%
α1-antitrypsin (“αAT”)
  increase in levels of expression of αAT relative to untreated keratinocytes: 343%
[2]
  increase in levels of expression of NF relative to untreated keratinocytes: 89%
